Assay results reported in ChEMBL document CHEMBL1944587, “4-Piperidin-4-ylidenemethyl-benzamides as δ-opioid receptor agonists for CNS indications: identifying clinical candidates” (Bioorg Med Chem Lett, 2012).

Assay: physchem
Details: octanol/water

In order of rising logD:
1. O=C(c1ccc(C(=C2CCN(Cc3cscn3)CC2)c2cccc3cccnc23)cc1)N1CCC(O)CC1  1.9
2. CN1CCN(C(=O)c2ccc(C(=C3CCN(Cc4cscn4)CC3)c3cccc4cccnc34)cc2)CC1  2
3. O=C(c1ccc(C(=C2CCN(Cc3cscn3)CC2)c2cccc3cccnc23)cc1)N1CCOCC1  2.1
4. CN(C)C(=O)c1ccc(C(=C2CCN(Cc3cscn3)CC2)c2cccc3cccnc23)cc1  2.3
5. O=C(c1ccc(C(=C2CCN(Cc3cscn3)CC2)c2cccc3cccnc23)cc1)N1CCCC1  2.8
